Measured values from US11338007B2, “Combination formulation of three antiviral compounds” (priority 2016, dated 2022).

What was measured:
[1] = Food effect (high calorie/high-fat meals) on pharmacokinetics in human subjects (Table 28); assay type: in vivo; details: tablets 400/100/100 mg; high calorie/high-fat meal
Procedure: The effect of food (high calorie/high-fat meals) on the pharmacokinetics of sofosbuvir/velpatasvir SSD/voxilaprevir SSD tablets (400/100/100 mg). […] As a result, sofosbuvir/velpatasvir SSD/voxilaprevir SSD tablets are administered with food.

[2] = Chemical and physical stability of Formulation G film-coated tablets Lots A and B (Tables 11A, 11B); assay type: physicochemical; details: packaged Formulation G tablets; 40° C./75% RH and 25° C./60% RH for 6 months
Procedure: In some embodiments, the film-coated tablets were packaged in 75 and 100 mL white HDPE bottles (Lots A and B, respectively, as described in Tables 11A, 11B) with 1 g silica gel desiccant canisters and a polyester fiber coil. The 75 and 100 mL HDPE bottles contained fourteen and twenty eight tablets, respectively. Each HDPE bottle was capped using a continuous thread, child-resistant polypropylene screw cap with an […], aluminum-faced line. The packaged tablets (14 and 28 counts) were evaluated for stability at 40° C./75% RH and 25° C./60% RH. Additionally, the 14-count bottles (without cap) were evaluated for stability under open conditions at 40° C./75% RH.

[3] = Tablet dissolution, 50 mM sodium acetate buffer pH 5.0 with 2.0% w/v Polysorbate 80, USP Type II, 75 rpm; assay type: physicochemical; details: for dissolution at 30 minutes: after 4 weeks open at 40° C./75% RH
Procedure: FIGS. 10-12 depict additional dissolution profiles for the sofosbuvir/velpatasvir SSD/voxilaprevir SSD tablets having the formulation described in Table 13 and which were used in phase 1, 2, and 3 clinical studies, where the dissolution testing was conducted at pH 5.0 acetate buffer containing 2.0% w/v polysorbate 80. Four batches of the sofosbuvir/velpatasvir SSD/voxilaprevir SSD tablets were tested, with Batch A manufactured at 100 kg and Batches B, C and D manufactured at 145 kg. All other aspects of the formulation and manufacturing process were otherwise equivalent. […] Moreover, for Batch A, the amount dissolved at 30 min remained between 98 and 100% for sofosbuvir, between 90 and 92% for velpatasvir SSD, and between 89 and 93% for voxilaprevir SSD. […] For Batch D, the amount dissolved at 30 min remained at 100% for sofosbuvir, between 90 and 91% for velpatasvir SSD, and between 89 and 91% for voxilaprevir SSD. Release of velpatasvir SSD and voxilaprevir SSD from the sofosbuvir/velpatasvir SSD/voxilaprevir SSD tablets associated with all four Batches was complete after 60 minutes.

[4] = Tablet dissolution as a function of medium pH and composition (FIGS. 13-15); assay type: physicochemical; details: for dissolution from tablets: pH 2.0, 4.5 and 6.8 buffers, FaSSIF and FeSSIF; for dissolution from tablets at 60 minutes: pH 4.0 and 5.0 containing 2.0% w/v polysorbate 80
[5] = BCS classification and pH dependence of solubility; assay type: physicochemical
[6] = Velpatasvir pharmacokinetics after single and multiple oral doses (Table 1); assay type: in vivo, human; details: for t1/2 / tlast / tmax: median
Procedure: Following single and multiple oral doses of velpatasvir, maximum plasma concentrations occurred between 1.50 and 3.25 hours (median tmax).

[7] = Stress studies: stability of tablets made with stressed VEL SSD/VOX SSD (water, residual solvent, peroxide, reprocessing, potency; Tables 16-21); assay type: physicochemical
Procedure: The impact of the following stressors on the physical and chemical stability of the sofosbuvir/velpatasvir SSD/voxilaprevir SSD tablets were evaluated:
(i) Voxilaprevir SSD and velpatasvir SSD, and sofosbuvir/velpatasvir SSD/voxilaprevir SSD tablet water content;
(ii) Copovidone peroxide content in velpatasvir SSD and in voxilaprevir SSD (iii) Reprocessed velpatasvir SSD and voxilaprevir SSD;
(iv) Voxilaprevir SSD and velpatasvir SSD potency (varying the ratio of velpatasvir or voxilaprevir to copovidone); and
(v) Seeding sofosbuvir/velpatasvir SSD/voxilaprevir SSD tablets with crystalline voxilaprevir Form VIII and Form X drug substances.

[8] = Photostability of tablet cores and film-coated tablets per ICH Q1B (Table 12); assay type: physicochemical; details: for level of degradation products: tablets film-coated to weight gains 2.1 to 5.4%; for loss after exposure to light: uncoated tablet cores
Procedure: Tablet cores and film-coated tablets were evaluated per ICH Q1B guidelines with a total of illumination of more than 1.2 million-lux hours and a total irradiance of more than 200 W·hr/m^2.

[9] = Relative bioavailability of voxilaprevir amorphous free acid tablets vs Form VI tablets, fasted and fed, healthy subjects (Table 3); assay type: in vivo, human; details: human, in vivo, oral, single dose 100 mg, healthy subjects, fasted
From the text: Accordingly, a spray dried dispersion of voxilaprevir in the amorphous free acid form was selected for incorporation into the tablet formulation.

[10] = Voxilaprevir Form VI pharmacokinetics after single and multiple doses in healthy subjects (Table 2); assay type: in vivo, human; details: for Ctau: mean
Procedure: Pub. No. 2015/0175625 A1. Initial studies were conducted using the crystalline Form VI of voxilaprevir. As described previously, Form VI of voxilaprevir is characterized by an X-ray powder diffractogram comprising the following peaks (±0.2°): at 14.6, 15.4, and 20.0 °2θ, as determined on a diffractometer using Cu—Kα radiation. Following single and multiple oral doses of voxilaprevir, Form VI, maximum plasma concentrations occurred between 2.0 and 5.0 hours (median tmax). […] Steady-state concentrations of voxilaprevir, Form VI were achieved after 7 days of once-daily dosing across all dose levels (Table 2).

[11] = Impact of desiccant and packaging configuration on tablet stability (Tables 24A-24C); assay type: physicochemical; details: desiccant study (0, 1, 3 g); all conditions, 6 months;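 further: stability of tablets stored with different desiccant amounts and packaging configurations, evaluating physical and chemical stability plus dissolution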
[12] = Solid-state properties and open-container stability of sofosbuvir Forms 6 and 7; assay type: physicochemical
From the text: In some embodiments, and the Examples presented herein, the tablet formulation includes sofosbuvir having Form 6 and, optionally, a trace amount of Form 7. […] Form 6 of sofosbuvir is the thermodynamically stable form and remains physically stable when suspended in water. Form 7 of Sofosbuvir, while physically stable in water for short periods of time, can be converted to Form 6 with prolonged stirring.

[13] = SSD potency study, tablet Lots A-D, all conditions
[14] = tablets from VEL SSD 6.0% residual ethanol and VOX SSD 2.1% residual acetone, all conditions
[15] = tablets from VEL SSD 7.0% and VOX SSD 3.2% water content, all conditions

C[C@@]1(F)[C@H](O)[C@@H](CO)O[C@H]1n1ccc(=O)[nH]c1=O [Formulation M1]
effect of food on plasma exposure [1]: does not substantially alter

COC[C@H]1C[C@@H](c2ncc(-c3ccc4c(c3)COc3cc5c(ccc6nc([C@@H]7CC[C@H](C)N7C(=O)[C@@H](NC(=O)OC)C(C)C)[nH]c65)cc3-4)[nH]2)N(C(=O)[C@H](NC(=O)OC)c2ccccc2)C1 [velpatasvir, methyl {(2S)-1-[(2S,5S)-2-(9-{2-[(2S,4S)-1-{(2R)-2-[(methoxycarbonyl)amino]-2-phenylacetyl}-4-(methoxymethyl)pyrrolidin-2-yl]-1H-imidazol-5-yl}-1,11-dihydroisochromeno[4′,3′:6,7]naphtho[1,2-d]imidazol-2-yl)-5-methylpyrrolidin-1-yl]-3-methyl-1-oxobutan-2-yl}carbamate]
total impurities/degradation products [2]: 0.0%
dissolution at 30 minutes ([3]; potency study Lot A): 86%
dissolution at 30 minutes ([3]; potency study Lot B): 91%
dissolution at 30 minutes ([3]; potency study Lots C and D): 89-93%
release of velpatasvir at 30 minutes ([3]; tablets containing neat amorphous velpatasvir free base): 62%
release of velpatasvir at 30 minutes ([3]; tablets containing velpatasvir SSD): 91%
dissolution from tablets [4]: Incomplete dissolution
dissolution from tablets at 60 minutes [4]: complete dissolution
BCS Class [5]: BCS Class 4
aqueous solubility, pH dependence [5]: pH-dependent
CLss/F ([6]; multiple dose 5 mg, mean): 36,095.7 mL/h
Cmax ([6]; multiple dose 5 mg, mean): 28.3 ng/mL
t1/2 ([6]; multiple dose 5 mg): 13.73 h
tlast ([6]; multiple dose 5 mg): 24.00 h
tmax ([6]; multiple dose 5 mg): 2.00 h
CLss/F ([6]; multiple dose 50 mg, mean): 19,593.0 mL/h
Cmax ([6]; multiple dose 50 mg, mean): 411.4 ng/mL
Ctau ([6]; multiple dose 50 mg, mean): 37.9 ng/mL
t1/2 ([6]; multiple dose 50 mg): 13.02 h
tlast ([6]; multiple dose 50 mg): 24.00 h
CLss/F ([6]; multiple dose 150 mg, mean): 45,082.3 mL/h
Cmax ([6]; multiple dose 150 mg, mean): 669.4 ng/mL
Ctau ([6]; multiple dose 150 mg, mean): 63.4 ng/mL
t1/2 ([6]; multiple dose 150 mg): 15.15 h
tlast ([6]; multiple dose 150 mg): 24.00 h
CLss/F ([6]; multiple dose 450 mg, mean): 58,804.6 mL/h
Cmax ([6]; multiple dose 450 mg, mean): 1195.7 ng/mL
Ctau ([6]; multiple dose 450 mg, mean): 127.7 ng/mL
t1/2 ([6]; multiple dose 450 mg): 11.74 h
tlast ([6]; multiple dose 450 mg): 24.00 h
tmax ([6]; multiple dose 450 mg): 3.00 h
mean plasma concentration at 24 hours postdose relative to protein-adjusted EC50 for genotype 1 to 6 HCV replicons ([6]; multiple once-daily doses greater than 5 mg): above
CL/F ([6]; single dose 5 mg, mean): 58,398.0 mL/h
tlast ([6]; single dose 5 mg): 24.00 h
CL/F ([6]; single dose 50 mg, mean): 19,188.4 mL/h
Clast ([6]; single dose 50 mg, mean): 2.34 ng/mL
tlast ([6]; single dose 50 mg): 72.00 h
CL/F ([6]; single dose 100 mg, mean): 24,617.9 mL/h
Clast ([6]; single dose 100 mg, mean): 2.85 ng/mL
tlast ([6]; single dose 100 mg): 95.00 h
CL/F ([6]; single dose 150 mg, excluding one patient, mean (% CV)): ^bMean (% CV) CL/F for the VEL 150 mg group (excluding one patient) was 31,403.8 (40.5) mL/h.
CL/F ([6]; single dose 150 mg, mean): 72,185.5 mL/h
Clast ([6]; single dose 150 mg, mean): 2.23 ng/mL
tlast ([6]; single dose 150 mg): 96.00 h
CL/F ([6]; single dose 450 mg, mean): 53,676.4 mL/h
Clast ([6]; single dose 450 mg, mean): 3.28 ng/mL
tlast ([6]; single dose 450 mg): 96.00 h
total impurities/degradation products [7, 13]: 0.0%
total impurities/degradation products ([7]; tablets from SSDs with copovidone 544 ppm (VEL SSD) and 655 ppm (VOX SSD) peroxides): 0.0%
total impurities/degradation products [7, 14]: 0.0%
total impurities/degradation products [7, 15]: 0.0%
level of degradation products [8]: 0.4%
loss after exposure to light [8]: up to 0.3%

CC[C@@H]1[C@@H]2CN(C(=O)[C@H](C(C)(C)C)NC(=O)O[C@@H]3C[C@H]3CCCCC(F)(F)c3nc4ccc(OC)cc4nc3O2)[C@@H]1C(=O)N[C@]1(C(=O)NS(=O)(=O)C2(C)CC2)C[C@H]1C(F)F [voxilaprevir, Form VI, voxilaprevir]
AUC(0-inf) [9]: 326 ng·h/mL
Cmax ([9]; read-out: Cmax): 21.7 ng/mL
Ctau ([10]; multiple dose 30 mg): 1.9 ng/mL
Ctau ([10]; multiple dose 100 mg): 5.7 ng/mL
Ctau ([10]; multiple dose 300 mg): 10.0 ng/mL
steady-state concentrations achieved after ([10]; once-daily dosing, all dose levels): 7 days
t1/2 ([10]; single dose 300 mg, median): 35.49 h

CC[C@@H]1[C@@H]2CN(C(=O)[C@H](C(C)(C)C)NC(=O)O[C@@H]3C[C@H]3CCCCC(F)(F)c3nc4ccc(OC)cc4nc3O2)[C@@H]1C(=O)N[C@]1(C(=O)NS(=O)(=O)C2(C)CC2)C[C@H]1C(F)F [voxilaprevir, (1aR,5S,8S,9S,10R,22aR)-5-tert-butyl-N-{(1R,2R)-2-(difluoromethyl)-1-[(1-methylcyclopropanesulfonyl)carbamoyl]cyclopropyl}-9-ethyl-18,18-difluoro-14-methoxy-3,6-dioxo-1,1a,3,4,5,6,9,10,18,19,20,21,22,22a-tetradecahydro-8H-7,10-methanocyclopropa[18,19][1,10,3,6]dioxadiazacyclononadecino[11,12-b]quinoxaline-8-carboxamide]
dissolution at 30 minutes ([3]; potency study Lot A): 85%
dissolution at 30 minutes ([3]; potency study Lot B): 91%
dissolution at 30 minutes ([3]; potency study Lots C and D): 92%
voxilaprevir released at 30 minutes ([3]; tablets containing 0% w/w crystalline voxilaprevir): 91%
voxilaprevir released at 30 minutes ([3]; tablets containing neat amorphous voxilaprevir free acid): 76%
voxilaprevir released at 30 minutes ([3]; tablets containing voxilaprevir SSD): 91%
voxilaprevir released at 30 minutes ([3]; tablets spiked with 5% w/w Form VIII or Form X): 84%
voxilaprevir released at 30 minutes ([3]; tablets spiked with 10% w/w Form VIII or Form X): 80%
voxilaprevir released at 30 minutes ([3]; tablets spiked with 20% w/w Form VIII or Form X): 73%
dissolution from tablets [4]: Incomplete dissolution
dissolution from tablets at 60 minutes [4]: complete dissolution
BCS Class [5]: BCS Class 2
aqueous solubility, pH dependence [5]: pH-dependent
total impurities/degradation products [7, 13]: 0.7%
total impurities/degradation products [7, 14]: 0.0%
total impurities/degradation products [7, 15]: 0.0%
level of degradation products [8]: 0.0%
loss after exposure to light [8]: no change
total impurities/degradation products [11]: 0.0%

C[C@H](NP(=O)(O)OC[C@H]1OC(n2ccc(=O)[nH]c2=O)[C@](C)(F)[C@@H]1O)C(=O)O (stereo partly drawn) [Formulation M2]
effect of food on plasma exposure [1]: does not substantially alter

CC(C)OC(=O)[C@H](C)N[P@](=O)(OC[C@H]1O[C@@H](n2ccc(=O)[nH]c2=O)[C@](C)(F)[C@@H]1O)Oc1ccccc1 [Form 6, sofosbuvir]
hygroscopicity [12]: non-hygroscopic
photosensitivity [12]: not photosensitive
physical and chemical stability ([12]; open container, 1 month at 40° C./75% RH): physically and chemically stable
